# Values of other authors in patent US20120022018A1, “ANTI-VIRAL PROPERTIES OF ALOE VERA AND ACQUIRED IMMUNE DEFICIENCY SYNDROME (AIDS) TREATMENT” (NORTH TEXAS MEDICAL ASSOCIATES, priority 2010, published 2012).
# Tests used:
# [1] = system: New Castle and paramyxoviruses; conditions: New Castle and paramyxoviruses in culture; altered envelope glycoproteins
# [2] = system: monocytic/macrophagic (M/M) cell counts; conditions: in vivo
# [3] = system: HIV-1 envelope glycoprotein; conditions: HIV-1 infected monocytes cultures; instead of usual GP-160, GP-120, GP-41 bands
substance,measurement,setting,value
Acemannan,effect on infectivity of virions,[1],rendered the virions incapable of infecting susceptible target cell lines as well as animals
same,monocytic/macrophagic (M/M) cell counts,[2],increase
same,effect on HIV-1 envelope glycoprotein,[3],induced the production of multiple molecular weights of HIV-1 envelope glycoprotein
